Where two headings read alike, the source gives them in different places.
Tests used:
HCV-NS5BΔ21 RdRp mutants [1] = target: T1, HCV-NS5BΔ21 RdRp mutants (Hepatitis C virus genotype 1b, UniProt O92972, F2581Y); assay type: biochemical; conditions: F162Y variant (33% of wild-type activity at baseline)
T1 construct: His6 (N); made in house; host or cells: Escherichia coli C41(DE3)
Text: (§1) The cell-free HCV-NS5BΔ21 polymerase assay is based on the real-time measurement of the amount of double-stranded RNA synthesized in the presence of HCV-NS5BΔ21, a homopolymeric RNA template (poly U or poly C, GE Healthcare, Chalfont St. Giles, UK) and the corresponding nucleotide, by means of an intercalating agent (SYBR® Green, Applied Biosystems, Carlsbad, CA, USA), as previously described ([20]). For screening, HCV-NS5BΔ21 polymerase activity was quantified by the slope of fluorescence increase in the presence of 20 μM of the tested flavonoid compounds and compared with the control reaction containing no inhibitor. […] The reported values are the average of three independent measurements performed in duplicate. For kinetics analysis, initial reaction velocities were measured at different nucleotide (adenosine triphosphate (ATP) or GTP) and studied compound concentrations, without pre-incubation and in the presence of 50 μg/ml of the corresponding homopolymeric RNA template (Poly U and Poly C, respectively). The concentration of NS5BΔ21 (J4 strain, genotype 1b) in the reaction was 0.1 mg/ml. Kinetics data were graphically represented as double reciprocal plots. Data points were fitted by linear regression to identify the inhibition mode of the compound.

HCV-NS5BΔ21 RdRp mutants [2] = target: T2, HCV-NS5BΔ21 RdRp mutants (Hepatitis C virus genotype 1b, UniProt O92972, V2535I); assay type: biochemical; conditions: enzyme assay and genotype 1b subgenomic replicon, data not shown
T2 construct: His6 (N); made in house; host or cells: Escherichia coli C41(DE3)
Text: as §1

HCV-NS5BΔ21 RdRp mutants [3] = assay type: biochemical, hepatitis C virus; conditions: S96A and G557A mutants
Text: as §1

[4] = target: T3, RNA binding to HCV-NS5BΔ21 (Hepatitis C virus genotype 1b, UniProt O92972); test: HCV-NS5BΔ21-RNA ELISA assay; conditions: dose-dependent
T3 construct: made in house; host or cells: Escherichia coli C41(DE3)
Description: Ninety-six-well plates were coated with streptavidin (100 μg/ml in 0.1 M NaHCO3, 50 μl/well) overnight at 4°C. The plates were washed six times with 200 μl phosphate-buffered saline (PBS)-T and blocked with 50 μl of 3% BSA and 0.1 μg/ml of streptavidin in PBS overnight at 4°C, then four times with 0.1% PBS-Tween. A mix of 5 pmol of biotinylated RNA and 0.5 μg of HCV-NS5BΔ21 previously incubated for 30 min at 37°C in a binding buffer containing 50 mM Tris (pH 7.5), 150 mM NaCl, 0.02 mg/ml yeast tRNA and 0.2 mg/ml BSA was added (50 μl/well) and incubated 1 h at room temperature. The plates were washed six times with 200 μl/well PBS-T, and the 6His mAB/HRP conjugate (Clontech, Mountain View, CA, USA) in PBS 1:1000 (50 μl/well) was added and incubated for 1 h at room temperature. The plates were washed six times with 200 μl/well PBS-T. A mix of enhanced chemiluminescence reagent was added (50 μl/well) and luminescence was measured.

[5] = target: T4, HCV-NS5BΔ21 RdRp genotype 1b (strain J4) (Hepatitis C virus genotype 1b, UniProt O92972); test: biochemical; set-up: His6 (N); made in house; host or cells: Escherichia coli C41(DE3)
Description: (§2) The HCV RdRps (NS5B protein) from reference strains H77 (genotype 1a), J4 (genotype 1b) and JFH1 (genotype 2a), truncated of their 21 C-terminal amino acids to ensure solubility (NS5BΔ21) and carrying a hexahistidine tag (His6-Tag) at their N-terminus, were expressed in Escherichia coli C41(DE3) and purified as previously described ([20]). Briefly, cultures were grown at 37°C for ∼1 h and induced with 1 mM isopropyl β-D-thiogalactoside for 4 h at 37°C. […] After sonication, cell lysates were clarified by centrifugation, and chromatography was performed on a Ni-NTA column (Qiagen, Hilden, Germany). The bound protein was eluted in 1 ml fractions with a buffer containing 50 mM NaH2PO4 (pH 8.0), 500 mM NaCl and 250 mM imidazole. NS5BΔ21-enriched fractions were selected using a Bradford colorimetric assay, and HCV-NS5BΔ21 purity was determined by Coomassie-stained sodium dodecyl sulfate-polyacrylamide electrophoresis gel (SDS-PAGE) analysis. Purified NS5BΔ21 fractions were pooled and dialyzed against a buffer containing 5 mM Tris (pH 7.5), 0.2 M sodium acetate, 1 mM DTT, 1 mM ethylenediaminetetraacetic acid (EDTA) and 10% glycerol.
as §1

RNA duplex = RNA duplex fluorescence assay; conditions: 20 μM compound
[6] = target: T5, HCV-NS5BΔ21 RdRp genotype 2a (strain JFH1) (Hepatitis C virus genotype 2a, UniProt Q99IB8); test: cell-free HCV-NS5BΔ21 polymerase assay, genotype 2a (JFH1); assay type: biochemical
T5 construct: His6 (N); made in house; host or cells: Escherichia coli C41(DE3)
Description: as §2, with “glycerol. […]” for “glycerol.”

[7] = target: T6, HCV-NS5BΔ21 RdRp genotype 1a (strain H77) (Hepatitis C virus genotype 1a, UniProt P27958); test: cell-free HCV-NS5BΔ21 polymerase assay, genotype 1a (H77); assay type: biochemical
T6 construct: His6 (N); made in house; host or cells: Escherichia coli C41(DE3)
Description: as §2, with “glycerol. […]” for “glycerol.”

[8] = target: T4, HCV-NS5BΔ21 RdRp genotype 1b (strain J4); test: biochemical; conditions: range over three genotypes; read-out: IC50 in the enzyme assay, genotypes 1b, 1a and 2a
Description: as §2, with “glycerol. […]” for “glycerol.”

[9] = test system: genotype 2a infectious J6/JFH1 strain; test: J6/JFH1 infection in cell culture (HCVcc, Huh7.5 cells); assay type: cell-based; conditions: Hepatitis C virus, Huh7.5, 72 h, read-out: EC50 J6/JFH1 replication
Description: The plasmid pFL-R-luc2A-ubi-J6/JFH1, containing the full-length cDNA of the chimeric J6/JFH1 HCV genotype 2a clone and the Renilla luciferase gene, was used to generate infectious HCV particles (HCVcc) in Huh7.5 cell culture. Huh7.5 cells were seeded in 48-well plates at a density of 10 000 cells/well, infected 24 h later with 100 μl of HCVcc and incubated overnight at 37°C. After incubation, the supernatants were removed and J6/JFH1-infected cells were washed with fresh medium. Increasing concentrations of the tested compounds were added in a medium containing 1% DMSO, and the cells were incubated 72 h at 37°C. Then, the cells were washed once with Dulbecco's PBS (Invitrogen), and 75 μl Renilla lysis buffer (Promega) was added to each well. Note that 20 μl of lysate was mixed with the luciferase assay substrate, as specified by the manufacturer. Luciferase activity was measured for 10 s in a Berthold luminometer.

[10] = test system: HCV genotype 1b subgenomic replicon Con1; test: microbe, parasite or virus in culture; conditions: Hepatitis C virus, Huh7.5, 72 h, read-out: EC50 replicon replication
Description: Each data point represents the average of at least three replicates in cell culture. HCV RNA level reductions after treatment were assessed by comparing the level of HCV RNA in compound-treated cells to that of control cells treated with 1% DMSO.

[11] = target: T3, RNA binding to HCV-NS5BΔ21; test: RNA binding assay (EMSA); conditions: fixed concentration of HCV-NS5BΔ21, increasing compound
Description: RNA binding was studied by means of the electrophoretic mobility shift assay (EMSA) with minor modifications. Briefly, 0.5 μg/ml of HCV-NS5BΔ21 was incubated with 1 μg of a 500 bp RNA at 37°C for 30 min in 20 μl of a binding buffer containing 10 mM Tris pH 7.5, 1 mM EDTA, 100 mM KCl, 0.1 mM DTT, 5% vol/vol glycerol, 10 μg/ml bovine serum albumin (BSA), in the presence of increasing concentrations of the tested compound. Samples were then loaded onto a non-denaturing agarose gel. The gel was incubated 20 min in SYBR green EMSA Nucleic Acid Gel Stain (Invitrogen, Carlsbad, CA, USA). After washing, the gel was visualized under ultraviolet transillumination.

[12] = test system: HCV NS5B protein expression; test: Western blot analysis of NS5B in Con1 replicon cells; assay type: cell-based, hepatitis C virus; conditions: Huh7.5 cells, 72 h, increasing concentrations
Description: HCV Con1 replicon-harboring cells were seeded at a density of 90 000 cells per well in 6-well plates. […] NS5B and actin were detected using specific monoclonal antibodies (Enzo Life Sciences, Firmingdale, NY, USA and Sigma Aldrich, Saint Louis, MO, USA, respectively).

T4 sequence (O92972 2420-2989, stated change not applied): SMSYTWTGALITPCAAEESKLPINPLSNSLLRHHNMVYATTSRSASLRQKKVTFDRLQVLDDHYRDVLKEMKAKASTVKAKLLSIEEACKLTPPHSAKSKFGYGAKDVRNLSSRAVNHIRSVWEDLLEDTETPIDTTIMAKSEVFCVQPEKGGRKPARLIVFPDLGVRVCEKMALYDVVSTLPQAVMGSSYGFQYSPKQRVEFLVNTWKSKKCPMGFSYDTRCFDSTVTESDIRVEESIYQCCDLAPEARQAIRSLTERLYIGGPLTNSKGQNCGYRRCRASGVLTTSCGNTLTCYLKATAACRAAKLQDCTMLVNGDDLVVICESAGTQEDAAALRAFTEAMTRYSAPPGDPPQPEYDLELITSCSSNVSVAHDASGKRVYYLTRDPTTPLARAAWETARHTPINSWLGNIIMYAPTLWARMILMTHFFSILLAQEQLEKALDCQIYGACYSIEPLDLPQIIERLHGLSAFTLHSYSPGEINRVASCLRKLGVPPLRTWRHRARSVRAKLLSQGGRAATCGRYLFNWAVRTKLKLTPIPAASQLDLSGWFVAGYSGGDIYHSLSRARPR
T3 sequence (O92972 2420-2989, stated change not applied): as above
T6 sequence (P27958 2421-2990, stated change not applied): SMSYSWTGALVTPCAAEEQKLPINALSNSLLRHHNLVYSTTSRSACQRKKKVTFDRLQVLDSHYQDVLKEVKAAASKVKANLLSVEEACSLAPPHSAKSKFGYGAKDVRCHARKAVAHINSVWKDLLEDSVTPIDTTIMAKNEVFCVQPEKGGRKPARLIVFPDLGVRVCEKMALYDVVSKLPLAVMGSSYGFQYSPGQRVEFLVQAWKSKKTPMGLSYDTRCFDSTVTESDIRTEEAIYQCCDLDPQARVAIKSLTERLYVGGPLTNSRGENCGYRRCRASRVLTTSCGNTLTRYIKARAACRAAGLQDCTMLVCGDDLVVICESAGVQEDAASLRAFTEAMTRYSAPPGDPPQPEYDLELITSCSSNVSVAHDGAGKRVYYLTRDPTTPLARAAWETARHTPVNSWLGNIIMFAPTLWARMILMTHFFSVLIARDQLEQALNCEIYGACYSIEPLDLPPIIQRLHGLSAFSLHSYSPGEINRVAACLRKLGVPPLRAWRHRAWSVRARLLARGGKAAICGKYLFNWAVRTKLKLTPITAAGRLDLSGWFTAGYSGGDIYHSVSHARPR
T2 sequence (O92972 2420-2989 V2535I): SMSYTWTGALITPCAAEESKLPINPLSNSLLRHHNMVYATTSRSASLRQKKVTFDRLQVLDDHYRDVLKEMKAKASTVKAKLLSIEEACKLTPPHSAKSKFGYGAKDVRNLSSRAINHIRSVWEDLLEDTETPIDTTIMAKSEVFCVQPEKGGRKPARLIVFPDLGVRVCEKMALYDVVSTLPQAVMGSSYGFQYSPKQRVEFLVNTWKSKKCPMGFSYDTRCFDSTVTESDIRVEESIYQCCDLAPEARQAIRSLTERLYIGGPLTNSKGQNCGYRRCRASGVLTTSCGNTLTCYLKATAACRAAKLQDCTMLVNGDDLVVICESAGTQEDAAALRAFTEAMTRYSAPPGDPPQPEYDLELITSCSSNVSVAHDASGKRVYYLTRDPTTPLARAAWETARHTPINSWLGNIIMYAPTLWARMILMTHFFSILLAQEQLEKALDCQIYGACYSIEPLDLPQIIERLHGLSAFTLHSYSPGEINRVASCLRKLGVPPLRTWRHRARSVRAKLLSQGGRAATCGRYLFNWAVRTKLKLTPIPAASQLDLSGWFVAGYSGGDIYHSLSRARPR
T1 sequence (O92972 2420-2989 F2581Y): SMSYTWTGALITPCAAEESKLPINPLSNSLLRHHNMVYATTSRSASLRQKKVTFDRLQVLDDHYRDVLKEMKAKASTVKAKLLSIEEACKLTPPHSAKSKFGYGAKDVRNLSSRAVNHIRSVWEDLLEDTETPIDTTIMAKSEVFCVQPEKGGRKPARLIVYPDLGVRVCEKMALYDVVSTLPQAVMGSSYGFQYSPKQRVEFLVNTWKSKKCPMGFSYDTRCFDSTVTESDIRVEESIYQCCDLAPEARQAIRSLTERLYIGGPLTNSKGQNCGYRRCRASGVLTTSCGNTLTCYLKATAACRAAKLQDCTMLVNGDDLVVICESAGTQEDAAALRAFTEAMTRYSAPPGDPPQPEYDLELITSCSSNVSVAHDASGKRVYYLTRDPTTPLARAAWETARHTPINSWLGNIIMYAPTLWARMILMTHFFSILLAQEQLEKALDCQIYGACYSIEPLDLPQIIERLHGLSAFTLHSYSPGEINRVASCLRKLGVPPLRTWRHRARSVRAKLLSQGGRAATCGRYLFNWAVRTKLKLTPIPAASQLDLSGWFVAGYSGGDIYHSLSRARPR

O=c1c(O)c(-c2ccc(O)c(O)c2)oc2cc(O)c(O)c(O)c12 [Quercetagetin]
reduction of catalytic activity by the compound (HCV-NS5BΔ21 RdRp mutants [1]): 3 fold | susceptibility of V116I variant (HCV-NS5BΔ21 RdRp mutants [2]): did not reduce | change of susceptibility (HCV-NS5BΔ21 RdRp mutants [3]): No change | inhibition of RNA binding, EC50 [4]: of the same order as that in the enzyme assay | inhibition at 20 µM ([5]; 20 μM compound): 85.6% | Slope of fluorescence increase ([5]; 20 μM compound, no treatment control slope 62.0): 8.9 | IC50 ([5]; genotype 1b (strain J4), read-out: IC50 HCV-NS5BΔ21 polymerase activity): 4.3 ± 0.7 µM | mode of inhibition (double-reciprocal plots) ([5]; increasing ATP or GTP with poly-U or poly-C): non-competitive | RNA duplex formation (RNA duplex): not inhibited | IC50 [6]: 6.1 ± 1.6 µM | IC50 [7]: 2.8 ± 0.4 µM | IC50 [8]: 2.8 to 6.1 µM | EC50 [9]: 40.2 ± 17.7 µM | EC50 [10]: 5.4 ± 3.3 µM | amount of free RNA [11]: increased in a quercetagetin concentration-dependent manner | NS5B protein expression [12]: inhibited NS5B protein expression in a dose-dependent manner

Source: PMC4132742, “Inhibition of RNA binding to hepatitis C virus RNA-dependent RNA polymerase: a new mechanism for antiviral intervention” (Nucleic Acids Research, 2014)
